Test results published in patent publication US7655632B2, “Pyrazole derivative, medicinal composition containing the same, medicinal use thereof, and intermediate for production thereof” (Kissei Pharmaceutical Co., Ltd., priority 2002, dated 2010).

Legend:
[1] = biological target: T1, human SGLT1 (Homo sapiens, UniProt P13866); experiment: Assay for inhibitory effects on human SGLT1 activity (uptake of methyl-α-D-glucopyranoside in CS1-5-11D cells); assay type: cell-based; settings: CHO-K1 cells stably expressing human SGLT1 (CS1-5-11D); 1 mM α-MG uptake, 37° C., 1 hour
T1 construct: expressed in transfected cells
T1 sequence (P13866 1-664): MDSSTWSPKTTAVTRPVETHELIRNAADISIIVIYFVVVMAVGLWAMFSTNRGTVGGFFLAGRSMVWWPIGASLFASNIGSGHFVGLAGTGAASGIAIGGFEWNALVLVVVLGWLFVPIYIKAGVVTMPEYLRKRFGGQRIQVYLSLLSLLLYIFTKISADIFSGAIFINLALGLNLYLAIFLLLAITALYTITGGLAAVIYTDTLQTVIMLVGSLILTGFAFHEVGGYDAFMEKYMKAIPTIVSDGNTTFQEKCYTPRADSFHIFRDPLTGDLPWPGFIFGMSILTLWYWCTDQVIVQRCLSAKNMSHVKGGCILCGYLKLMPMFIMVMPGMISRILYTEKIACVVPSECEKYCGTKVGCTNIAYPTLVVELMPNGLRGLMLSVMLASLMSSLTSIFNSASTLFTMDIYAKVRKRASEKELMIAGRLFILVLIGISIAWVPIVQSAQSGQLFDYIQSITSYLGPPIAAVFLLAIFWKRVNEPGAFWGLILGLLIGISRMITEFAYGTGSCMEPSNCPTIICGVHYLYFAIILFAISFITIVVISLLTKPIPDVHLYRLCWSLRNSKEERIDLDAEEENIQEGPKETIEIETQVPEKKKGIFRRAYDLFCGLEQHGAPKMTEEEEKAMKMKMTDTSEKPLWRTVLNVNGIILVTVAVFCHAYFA
Experimental: Assay for Inhibitory Effects on Human SGLT1 Activity
1) Cloning and Construction of the Vector Expressing Human SGLT1
The cDNA library was prepared for PCR amplification by reverse transcription from total RNA deprived from human small intestine (Ori gene) using oligo-dT as a primer. Using this cDNA library as a template, the DNA fragment coding 1 to 2005 bp of human SGLT1 (ACCESSION: M24847), which was reported by Hediger et al., was amplified by PCR method and inserted into the multi-cloning site of pcDNA3.1(−) (Invitrogen). The DNA sequence inserted was perfectly matched to the previously reported sequence.
2) Establishment of Cell Line Stably Expressing Human SGLT1
The expression vector of human SGLT1 was digested by Sca I into a linear DNA. The linear DNA was transfected into CHO-K1 cells by means of lipofection (Effectene Transfection Reagent: QIAGEN). Neomycin resistant cell lines were selected by culture in the medium containing G418 (1 mg/mL, LIFE TECHNOLOGIES), and then the activity against the uptake of methyl-α-D-gluco-pyranoside was measured by the method described below. […] CS1-5-11D cells were cultured in the presence of G418 at 200 μg/mL.
3) Measurement of the Inhibitory Activity Against the Uptake of methyl-α-D-glucopyranoside (α-MG)
CS1-5-11D cells were seeded into a 96-well culture plate at a density of 3×10^4 cells/well and cultured for 2 days, and were used in the uptake assay. A mixture of non-labeled (Sigma) and ^14C-labeled α-MG (Amersham Pharmcia Biotec) was added to the uptake buffer (pH 7.4; containing 140 mM sodium chloride, 2 mM potassium chloride, 1 mM calcium chloride, 1 mM magnesium chloride, 10 mM 2-[4-(2-hydroxyethyl)-1-piperazinyl]ethane sulfonic acid, and 5 mM tris(hydroxymethyl)aminomethane) at the final concentration of 1 mM. A test compound was dissolved in dimethyl sulfoxide, and then appropriately diluted with distilled water. The test compound solution was added to the uptake buffer containing 1 mM α-MG, and designated as a measurement buffer. For the control group, the measurement buffer without any test compound was prepared. For measuring the basal uptake, a basal uptake measurement buffer which contains 140 mM chorine chloride instead of sodium chloride was prepared. After removing the culture medium of CS1-5-11D cells, 180 μL of the pre-treatment buffer (the basal uptake buffer without α-MG) was added to each well and incubated at 37° C. for 10 minutes. After repeating the same treatment, the pre-treatment buffer was removed. To each well was added 75 μL of the measurement buffer or the basal uptake buffer was added and incubated at 37° C. for 1 hour. After removing the measurement buffer, cells were washed twice with 180 μL per well of the washing buffer (the basal uptake buffer containing 10 mM non-labeled α-MG). The cells were solubilized by 75 μL per well of 0.2 mol/L sodium hydroxide. The cell lysates were transferred into PicoPlates (Packard), and then added 150 μL of MicroScint-40 (Packard) and mixed. Radioactivity was measured by means of micro-scintillation counter TopCount (Packard). One hundred % was set to the difference between the uptake in the control group and the basal uptake, and the uptake of methyl α-D-gluco-pyranoside at each drug concentration were calculated.

[2] = system: diabetic rats; experiment: Assay for inhibitory effects on blood glucose level increase in rats (liquid meal tolerance test in diabetic rat model); assay type: in vivo; settings: test compound 1 mg/kg orally, liquid meal 17.25 kcal/kg, mean ± S.E.; for Plasma glucose concentration 0.5 h: 0.5 hour after drug administration; for Plasma glucose concentration 1 h: 1 hour after drug administration; for Plasma glucose concentration 0 h: pretreatment (0 h)
Experimental: Assay for Inhibitory Effects on Blood Glucose Level Increase in rats
1) Preparation of Diabetic Rat Model
Male wistar rats (Japan Charles River), aged 8 weeks old, were injected nicotinamide (230 mg/kg) intraperitoneally. Fifteen minutes after injection, they were injected streptozotocin (85 mg/kg) intravenously from tail vain under anesthesia with ether. After a week, rats were fasted overnight and then glucose tolerance test (2 g/kg) was done.
2) Liquid Meal Tolerance Test
After overnight fasted, the diabetic rats were orally administered a test compound (1 mg/kg), which was dissolved in distilled water, in the drug-treating group, or distilled water alone in a control group. Immediately after the compound administration, 17.25 kcal/kg of liquid meal (No. 038, Control diet, assorted with dextrin and maltose; Oriental Yeast Co., Ltd.) was loaded orally. The blood was collected from tail artery immediately before and after administration with the time course, and treated with heparin immediately. The blood was centrifuged, and the plasma was collected to quantify the plasma glucose concentration by glucose oxidase method. The values in the table are presented as the mean ±S.E.

Row | Compound | IC50 [1] [nM] | Plasma glucose concentration 0.5 h [2] [mg/dL] | Plasma glucose concentration 1 h [2] [mg/dL] | Plasma glucose concentration 0 h [2] [mg/dL]
1 | 3-(β-D-Galactopyranosyloxy)-4-[(4-{3-[2-hydroxy-1-hydroxy-methyl-1-(methyl)ethylcarbamoyl]propyl}phenyl)methyl]-5-isopropyl-1H-pyrazole [Example 32] | 220 | 223 ± 20 | 278 ± 32 | 125 ± 8
2 | 3-(β-D-Glucopyranosyloxy)-4-({4-[3-(2-hydroxyethyl)-carbamoylpropyl]phenyl}methyl)-5-isopropyl-1H-pyrazole [Example 18] | 181 | – | – | –
3 | CC(C)c1[nH]nc(O[C@@H]2O[C@H](CO)[C@@H](O)[C@H](O)[C@H]2O)c1Cc1ccc(/C=C/C(=O)NC(C)(CO)CO)cc1 [Example 27, 3-(β-D-Glucopyranosyloxy)-4-[(4-{(1E)-2-[2-hydroxy-1-hydroxymethyl-1-(methyl)ethylcarbamoyl]vinyl}phenyl)-methyl]-5-isopropyl-1H-pyrazole] | 237 | – | – | –
4 | CC(C)c1[nH]nc(O[C@@H]2O[C@H](CO)[C@@H](O)[C@H](O)[C@H]2O)c1Cc1ccc(/C=C/C(=O)NC(CO)(CO)CO)cc1 [Example 28, 3-(β-D-Glucopyranosyloxy)-4-[(4-{(1E)-2-[2-hydroxy-1,1-bis-(hydroxymethyl)ethylcarbamoyl]vinyl}phenyl)methyl]-5-isopropyl-1H-pyrazole] | 267 | – | – | –
5 | CC(C)c1[nH]nc(O[C@@H]2O[C@H](CO)[C@@H](O)[C@H](O)[C@H]2O)c1Cc1ccc(/C=C/C(=O)NC(C)(C)C(N)=O)cc1 [Example 29, 4-[(4-{(1E)-2-[1-Carbamoyl-1-(methyl)ethylcarbamoyl]vinyl}-phenyl)methyl]-3-(β-D-glucopyranosyloxy)-5-isopropyl-1H-pyrazole] | 431 | – | – | –
6 | CC(C)c1[nH]nc(O[C@@H]2O[C@H](CO)[C@H](O)[C@H](O)[C@H]2O)c1Cc1ccc(CCCC(=O)NC(C)(C)C(N)=O)cc1 [Example 33, 4-[(4-{3-[1-Carbamoyl-1-(methyl)ethylcarbamoyl]propyl}-phenyl)methyl]-3-(β-D-galactopyranosyloxy)-5-isopropyl-1H-pyrazole] | 174 | 207 ± 8 | 251 ± 21 | 127 ± 11
7 | CC(C)c1[nH]nc(O[C@@H]2O[C@H](CO)[C@@H](O)[C@H](O)[C@H]2O)c1Cc1ccc(CCCS(=O)(=O)NCCN)cc1 [Example 34, 4-({4-[3-(2-Aminoethylsulfamoyl)propyl]phenyl}methyl)-3-(β-D-glucopyranosyloxy)-5-isopropyl-1H-pyrazole] | 245 | – | – | –
8 | CC(C)c1[nH]nc(O[C@@H]2O[C@H](CO)[C@@H](O)[C@H](O)[C@H]2O)c1Cc1ccc(CCCS(=O)(=O)NC(C)(C)C(N)=O)cc1 [Example 35, 4-[(4-{3-[1-Carbamoyl-1-(methyl)ethylsulfamoyl]propyl}-phenyl)methyl]-3-(β-D-glucopyranosyloxy)-5-isopropyl-1H-pyrazole] | 115 | – | – | –

Continued, in another order:

Row | IC50 [1] [nM] | Compound | Plasma glucose concentration 0.5 h [2] [mg/dL] | Plasma glucose concentration 1 h [2] [mg/dL] | Plasma glucose concentration 0 h [2] [mg/dL]
9 | 113 | CC(C)c1[nH]nc(O[C@@H]2O[C@H](CO)[C@@H](O)[C@H](O)[C@H]2O)c1Cc1ccc(CCCC(=O)NCCCN(CCO)CCO)cc1 [Example 15, 3-(β-D-Glucopyranosyloxy)-5-isopropyl-4-{[4-(3-{3-[bis(2-hydroxyethyl)amino]propylcarbamoyl}propyl)phenyl]methyl}-1H-pyrazole] | – | – | –
10 | 12 | CC(C)c1[nH]nc(O[C@@H]2O[C@H](CO)[C@@H](O)[C@H](O)[C@H]2O)c1Cc1ccc(CCCC(=O)NC(CO)(CO)CO)cc1 [Example 21, 3-(β-D-Glucopyranosyloxy)-4-[(4-{3-[2-hydroxy-1,1-bis-(hydroxymethyl)ethylcarbamoyl]propyl}phenyl)methyl]-5-isopropyl-1H-pyrazole] | 156 ± 15 | 178 ± 19 | 118 ± 9
11 | 24 | CC(C)c1[nH]nc(O[C@@H]2O[C@H](CO)[C@@H](O)[C@H](O)[C@H]2O)c1Cc1ccc(CCCC(=O)NC(C)(C)C(N)=O)cc1 [Example 24, 4-[(4-{3-[1-Carbamoyl-1-(methyl)ethylcarbamoyl]propyl}-phenyl)methyl]-3-(β-D-glucopyranosyloxy)-5-isopropyl-1H-pyrazole] | – | – | –
12 | 52 | CC(C)c1[nH]nc(O[C@@H]2O[C@H](CO)[C@@H](O)[C@H](O)[C@H]2O)c1Cc1ccc(CCCC(=O)NC(C)(C)C(=O)NCCO)cc1 [Example 30, 3-(β-D-Glucopyranosyloxy)-4-[(4-{3-[1-(2-hydroxyethyl-carbamoyl)-1-(methyl)ethylcarbamoyl]propyl}phenyl)methyl]-5-isopropyl-1H-pyrazole] | 163 ± 8 | 187 ± 9 | 121 ± 6
13 | 96 | CC(C)c1[nH]nc(O[C@@H]2O[C@H](CO)[C@@H](O)[C@H](O)[C@H]2O)c1Cc1ccc(CCCC(=O)NC(C)(C)C(=O)NCC(N)=O)cc1 [Example 31, 4-[(4-{3-[1-Carbamoylmethylcarbamoyl-1-(methyl)ethyl-carbamoyl]propyl}phenyl)methyl]-3-(β-D-glucopyranosyloxy)-5-isopropyl-1H-pyrazole] | – | – | –
14 | 31 | CC(C)c1[nH]nc(O[C@@H]2O[C@H](CO)[C@H](O)[C@H](O)[C@H]2O)c1Cc1ccc(CCCC(=O)NC(C)(C)C(=O)N2CCN(CCO)CC2)cc1 [Example 48, 3-(β-D-Galactopyranosyloxy)-4-[(4-{3-[1-{[4-(2-hydroxy-ethyl)piperazin-1-yl]carbonyl}-1-(methyl)ethylcarbamoyl]-propyl}phenyl)methyl]-5-isopropyl-1H-pyrazole] | 139 ± 4 | 132 ± 4 | 112 ± 5
15 | 39 | CC(C)c1[nH]nc(O[C@@H]2O[C@H](CO)[C@H](O)[C@H](O)[C@H]2O)c1Cc1ccc(CCCC(=O)NC(C)(C)C(=O)N2CCNCC2)cc1 [Example 57, 3-(β-D-Galactopyranosyloxy)-5-isopropyl-4-{[4-(3-{1-[(piperazin-1-yl)carbonyl]-1-(methyl)ethylcarbamoyl}-propyl)phenyl]methyl}-1H-pyrazole] | – | – | –
